tested on: ATXN3-HiBiT protein; experiment: ATXN3 Total Protein Assay (Kelly-ATXN3-HiBiT luminescence); type: cell-based; conditions: Kelly-ATXN3-HiBiT cells, 48 h after addition of compound
Excerpt: Example 36: ATXN3 Total Protein Assay
To monitor ATXN3 protein levels by luminescence, a Kelly-ATXN3-HiBiT cell line with homozygous knock-in of HiBiT at the C-terminus of the endogenous ATXN3 gene was used (knock-in of the HiBiT-tag coding sequence SEQ ID NO. 14: 5′[…]3′ into exon 11 of ATXN3-position 1114 of ATXN3 RefSeq NM_004993.6). Manipulations of the Kelly-ATXN3-HiBiT cell line that result in downregulation of the ATXN3-HiBiT protein (through modulation of ATXN3-HiBiT pre-mRNA splicing) can be followed by monitoring the luminescence signal of the HiBiT tag using the Nano Glo HiBiT Lytic Detection System (Promega, #N3050). Kelly-ATXN3-HiBiT cells were maintained in RPMI 1640 w/Glutamax (Gibco, #61870010), 10% FBS (Sigma Aldrich, #F8687), 1% Penicillin/Streptomycin (Gibco, #15140-122) at 37° C., 5% CO2. To assess HiBiT-luminescence signal upon compound treatment, 2000 Kelly-ATXN3-HiBiT cells were seeded per well in 384 plate format. Compounds were added 24 h after seeding. ATXN3-HiBiT-luminescence signal was read out 48 h after addition of the compound using the Nano Glo HiBiT Lytic Detection System (Promega, #N3050) according to the manufacturer's instructions. To control for cell viability, an identically prepared sister plate was read out with the CellTiter-Glo® 2.0 Assay (Promega, #G9243) according to the manufacturer's instructions. Fold changes of ATXN3-HiBiT-luminescence and of CellTiter-Glo viability signals were calculated relative to a DMSO control condition.

| EC50 [nM] | SMILES |
| --- | --- |
| 0.01 to 100 | C#Cc1c(C[C@@H](N)CCOC)oc2c(NCc3cccs3)cc(Cl)nc12 [Compound 266, 2-[(S)-2-amino-4-methoxybutyl]-5-chloro-3-ethynyl-7-thenylamino-1-oxa-4-azaindene] |
| 0.01 to 100 | [2H]C([2H])([2H])OC[C@H](N)Cc1oc2c(NC([2H])([2H])c3cccs3)cc(Cl)nc2c1C#C [Compound 250, 2-[(R)-2-amino-3-(^2H3)methoxypropyl]-5-chloro-3-ethynyl-7-{[(2-thienyl)(^2H2)methyl]amino}-1-oxa-4-azaindene] |
| 0.01 to 100 | [2H]C([2H])(OC)[C@H](N)Cc1oc2c(NCc3cccs3)cc(Cl)nc2c1Br [Compound 296, 2-[(R)-2-amino-3-methoxy(3,3- ^2H2)propyl]-3-bromo-5-chloro-7-thenylamino-1-oxa-4-azaindene] |
| 10000 to 40000 | Cc1c(CC(N)CC2COC2)oc2c(NCc3cccs3)cc(Cl)nc12 (stereo not shown) [Compound 70, 2-[2-amino-3-(3-oxetanyl)propyl]-5-chloro-3-methyl-7-thenylamino-1-oxa-4-azaindene] |
| 101 to 500 | Cc1c(CC(N)CC2(F)CC2)oc2c(NCc3cccs3)cc(Cl)nc12 (stereo not shown) [Compound 67, 2-[2-amino-3-(1-fluorocyclopropyl)propyl]-5-chloro-3-methyl-7-thenylamino-1-oxa-4-azaindene] |
| 0.01 to 100 | [2H]C([2H])(OC)[C@H](N)Cc1oc2c(NCc3cccs3)cc(Cl)nc2c1C#C [Compound 300, 2-[(R)-2-amino-3-methoxy(3,3- ^2H2)propyl]-5-chloro-3-ethynyl-7-thenylamino-1-oxa-4-azaindene] |
| 0.01 to 100 | [2H]C([2H])([2H])OC[C@]([2H])(N)Cc1oc2c(NCc3cccs3)cc(Cl)nc2c1C#C [Compound 286, 2-[(R)-2-amino-3-(^2H3)methoxy(2-2H)propyl]-5-chloro-3-ethynyl-7-thenylamino-1-oxa-4-azaindene] |
| 0.01 to 100 | [2H]C([2H])([2H])OC([2H])([2H])[C@H](N)Cc1oc2c(NCc3cccs3)cc(Cl)nc2c1Br [Compound 297, 2-[(R)-2-amino-3-(^2H3)methoxy(3,3- ^2H2)propyl]-3-bromo-5-chloro-7-thenylamino-1-oxa-4-azaindene] |
| 0.01 to 100 | [2H]C([2H])([2H])OC[C@H](N)Cc1oc2c(NCc3cccs3)cc(Cl)nc2c1Cl [Compound 264, 2-[(R)-2-amino-3-(^2H3)methoxypropyl]-3,5-dichloro-7-thenylamino-1-oxa-4-azaindene] |
| 0.01 to 100 | [2H]C([2H])([2H])OC[C@]([2H])(N)Cc1oc2c(NCc3cccs3)cc(Cl)nc2c1Br [Compound 284, 2-[(R)-2-amino-3-(^2H3)methoxy(2-2H)propyl]-3-bromo-5-chloro-7-thenylamino-1-oxa-4-azaindene] |
| 0.01 to 100 | C#Cc1c(C[C@@H](N)COC2CC2)oc2c(NCc3cccs3)cc(Cl)nc12 [Compound 244, 2-[(R)-2-amino-3-cyclopropoxypropyl]-5-chloro-3-ethynyl-7-thenylamino-1-oxa-4-azaindene] |
| 0.01 to 100 | N[C@@H](COCC(F)F)Cc1oc2c(NCc3cccs3)cc(Cl)nc2c1Br [Compound 182, 2-[(R)-2-amino-3-(2,2-difluoroethoxy)propyl]-3-bromo-5-chloro-7-thenylamino-1-oxa-4-azaindene] |
| 0.01 to 100 | [2H]C([2H])([2H])OC[C@H](N)Cc1oc2c(NCc3cccs3)cc(Cl)nc2c1C#C [Compound 233, 2-[(R)-2-amino-3-(2H3)methoxypropyl]-5-chloro-3-ethynyl-7-thenylamino-1-oxa-4-azaindene] |
| 101 to 500 | [2H]C([2H])([2H])OCC[C@H](N)Cc1oc2c(NCc3cccs3)cc(Cl)nc2c1Cl [Compound 273, 2-[(S)-2-amino-4-(^2H3)methoxybutyl]-3,5-dichloro-7-thenylamino-1-oxa-4-azaindene] |
| 0.01 to 100 | [2H]C([2H])([2H])OC[C@]([2H])(N)Cc1oc2c(NCc3cccs3)cc(Cl)nc2c1Cl [Compound 282, 2-[(R)-2-amino-3-(^2H3)methoxy(2-2H)propyl]-3,5-dichloro-7-thenylamino-1-oxa-4-azaindene] |
| 0.01 to 100 | [2H]C([2H])([2H])OC[C@H](N)Cc1oc2c(NCc3ccco3)cc(Cl)nc2c1Cl [Compound 265, 2-[(R)-2-amino-3-(^2H3)methoxypropyl]-3,5-dichloro-7-(furfurylamino)-1-oxa-4-azaindene] |
| 0.01 to 100 | [2H][C@](N)(COC)Cc1oc2c(NCc3cccs3)cc(Cl)nc2c1C#C [Compound 287, 2-[(R)-2-amino-3-methoxy(2-^2H)propyl]-5-chloro-3-ethynyl-7-thenylamino-1-oxa-4-azaindene] |
| 0.01 to 100 | [2H]C([2H])(OC(F)F)[C@H](N)Cc1oc2c(NCc3cccs3)cc(Cl)nc2c1C#C [Compound 302, 2-[(R)-2-amino-3-difluoromethoxy(3,3- ^2H2)propyl]-5-chloro-3-ethynyl-7-thenylamino-1-oxa-4-azaindene] |

The remaining lines, values behind:

| SMILES | EC50 [nM] |
| --- | --- |
| C[C@H](N)Cc1oc2c(NCc3ccccc3OC(F)(F)F)cc(Cl)nc2c1Br [Compound 349, 2-[(S)-2-aminopropyl]-3-bromo-5-chloro-7-{[(o-trifluoromethoxyphenyl)methyl]amino}-1-oxa-4-azaindene] | 10000 to 40000 |
| N[C@@H](CO)C(F)(F)c1oc2c(NCc3nccs3)cc(Cl)nc2c1Br [Compound 224, (S)-2-amino-3-(3-bromo-5-chloro-7-{[(1,3-thiazol-2-yl)methyl]amino}-1-oxa-4-aza-2-indenyl)-3,3-difluoro-1-propanol] | 501 to 5000 |
| COc1ccccc1CNc1cc(Cl)nc2c(Br)c(C[C@H](C)N)oc12 [Compound 337, 2-[(S)-2-aminopropyl]-3-bromo-5-chloro-7-{[(o-methoxyphenyl)methyl]amino}-1-oxa-4-azaindene] | 10000 to 40000 |
| N[C@H](Cc1oc2c(NCc3cccs3)cc(Cl)nc2c1Br)C[C@@H]1CC1(F)F [Compound 183, 2-{(S)-3-[(R)-2,2-difluorocyclopropyl]-2-aminopropyl}-3-bromo-5-chloro-7-thenylamino-1-oxa-4-azaindene] | 101 to 500 |
| [2H]C([2H])([2H])[C@H](N)Cc1oc2c(NCc3cccs3)cc(Cl)nc2c1C#C [Compound 270, 2-[(S)-2-amino(3,3,3-^2H3)propyl]-5-chloro-3-ethynyl-7-thenylamino-1-oxa-4-azaindene] | 0.01 to 100 |
| COc1cccc(CNc2cc(Cl)nc3c(Br)c(C[C@H](C)N)oc23)n1 [Compound 348, 2-[(S)-2-aminopropyl]-3-bromo-5-chloro-7-{[(6-methoxy-2-pyridyl)methyl]amino}-1-oxa-4-azaindene] | 10000 to 40000 |
| N#CC[C@H](N)Cc1oc2c(NCc3ccco3)cc(Cl)nc2c1Br [Compound 235, (S)-3-amino-4-[3-bromo-5-chloro-7-(furfurylamino)-1-oxa-4-aza-2-indenyl]butyronitrile] | 501 to 5000 |
| COC(C)c1oc2c(NCc3cccs3)cc(Cl)nc2c1Br (stereo not shown) [Compound 356, 3-bromo-5-chloro-2-(1-methoxyethyl)-N-(thiophen-2-ylmethyl)furo[3,2-b]pyridin-7-amine] | 10000 to 40000 |
| [2H]C([2H])([2H])[C@@H](N)Cc1oc2c(NCc3cccs3)cc(Cl)nc2c1Br [Compound 232, 2-[(R)-2-amino(3,3,3-^2H3)propyl]-3-bromo-5-chloro-7-thenylamino-1-oxa-4-azaindene] | 101 to 500 |
| N[C@H](Cc1oc2c(NCc3cccs3)cc(Cl)nc2c1Br)C[C@H]1CC1(F)F [Compound 184, 2-{(S)-3-[(S)-2,2-difluorocyclopropyl]-2-aminopropyl}-3-bromo-5-chloro-7-thenylamino-1-oxa-4-azaindene] | 101 to 500 |
| Cc1c(CC(N)CC2(F)COC2)oc2c(NCc3cccs3)cc(Cl)nc12 (stereo not shown) [Compound 73, 2-[2-amino-3-(3-fluoro-3-oxetanyl)propyl]-5-chloro-3-methyl-7-thenylamino-1-oxa-4-azaindene] | 10000 to 40000 |
| [2H]C([2H])(Nc1cc(Cl)nc2c(Br)c(C[C@]([2H])(C)N)oc12)c1cccs1 [Compound 234, 2-[(S)-2-amino(2-2H)propyl]-3-bromo-5-chloro-7-{[(2-thienyl)(^2H2)methyl]amino}-1-oxa-4-azaindene] | 0.01 to 100 |
| O=C(O)c1oc2c(NCc3cccs3)cc(Cl)nc2c1Br [Compound 347, 3-bromo-5-chloro-7-thenylamino-1-oxa-4-aza-2-indenecarboxylic acid] | 10000 to 40000 |
| [2H]C([2H])([2H])[C@H](N)Cc1oc2c(NCc3cccs3)cc(Cl)nc2c1Br [Compound 231, 2-[(S)-2-amino(3,3,3-2H3)propyl]-3-bromo-5-chloro-7-thenylamino-1-oxa-4-azaindene] | 0.01 to 100 |
| Clc1cc(NCc2ccncc2)c2occ(Br)c2n1 [Compound 280, [(4-pyridyl)methyl](3-bromo-5-chloro-1-oxa-4-aza-7-indenyl)amine] | 10000 to 40000 |
| [2H]C([2H])(Nc1cc(Cl)nc2c(Br)c(C[C@@H](N)COC(F)(F)F)oc12)c1cccs1 [Compound 246, 2-[(R)-2-amino-3-trifluoromethoxypropyl]-3-bromo-5-chloro-7-{[(2-thienyl)(^2H2)methyl]amino}-1-oxa-4-azaindene] | 101 to 500 |

— patent US20260001889A1, “COMPOSITIONS USEFUL FOR MODULATING SPLICING” (Skyhawk Therapeutics, Inc., priority 2022, published 2026)
